According to US20090220438A1, “CHROMEN-4-ONE DERIVATIVES AS SELF-TANNING SUBSTANCE” (MERCK PATENT GMBH, priority 2006, published 2009):

What was measured:
[1] = tested on: primary normal human melanocytes (R6-NHEM-2); experiment: Melanogenesis assay (melanin content after 240 hours incubation, OD at 405 nm against melanin standard); assay type: cell-based; conditions: for Melanin: 240 hours incubation
Description: The action of the compounds of the formula I as tanning agents is tested through the ability to increase melanin synthesis. The reference used is kojic acid, which acts on melanin synthesis and prevents a possible brown coloration of the skin. It can be seen from Table 1 that the compounds Ia to 1 g according to the invention are distinguished by the fact that—after topical application—they induce the formation of skin-inherent pigments in the skin, increase melanin synthesis in the skin and in this way produce enhanced tanning of the skin. They have no adverse health effects, are non-irritant and easy to handle, and the resultant hue naturally corresponds to that of the natural healthy skin colour. The tanning obtained is light-fast and cannot be washed off since it corresponds to natural tanning. To this end, primary normal human melanocytes (R6-NHEM-2)* are cultivated in 24 microtitre plates (96-well, 120,000 cells per tube). Two additional plates are carried out, one for evaluation of the viability of the cells (standard MTT assay) and a second for protein investigation (using a […] standard protocol). After 50% confluence, the culture medium is replaced by fresh culture medium which comprises either the control solution (KA or IBMX) or the 7 solutions to be investigated. Each experiment is repeated 3 times. The cells are incubated at 37° C. (and 5% CO2) for 240 hours, during which the medium is changed every 3 days. After incubation, monolayers are rinsed, the cells are destroyed, and melanin is extracted by means of a 0.5 M NaOH solution. *NHEM-2=normal human epidermal melanocytes (cell type) The optical density (OD) of each experimentally determined value is measured at 405 nm against the melanin standard (standard curve 0.39 to 100 μg/ml of melanin, Sigma M8631). The measurement results are quoted in μg/ml of melanin and in percent of the negative untreated control.

[2] = Tanning activity of intermediates or precursors (statement, no method given)
[3] = Homo sapiens, Melanocyte, 240 h, 200 μM, percent of the negative untreated control
[4] = Homo sapiens, Melanocyte, 240 h, 1.6 μM, percent of the negative untreated control
[5] = Homo sapiens, Melanocyte, 240 h, 8 μM, percent of the negative untreated control
[6] = Homo sapiens, Melanocyte, 240 h, 40 μM, percent of the negative untreated control

Structure (SMILES)	Melanin ([1]; 200 μM) [µg/mL]	activity at 200 µM [1, 3] [%]	Melanin ([1]; 1.6 μM) [µg/mL]	Melanin ([1]; 8 μM) [µg/mL]	Melanin ([1]; 40 μM) [µg/mL]	activity at 1.6 µM [1, 4] [%]	activity at 8 µM [1, 5] [%]	activity at 40 µM [1, 6] [%]	other results
CC(C)Cn1c(=O)n(C)c(=O)c2[nH]cnc21 [IBMX, 3-isobutyl-1-methylxanthine, reference compound]	15.39	166	–	–	–	–	–	–	–
O=c1ccoc2cc(O)ccc12 [If, 7-hydroxychromen-4-one]	–	–	19.9	20.3	24.7	100	102	124	–
O=c1cc(CO)occ1O [Kojic acid, kojic acid, reference compound]	–	–	–	–	–	–	–	–	Melanin ([1]; 560 μM): 5.55 µg/mL; activity at 560 µM ([1]; Homo sapiens, Melanocyte, 240 h, 560 μM, percent of the negative untreated control): 55%
Cc1oc2cc(O)cc(O)c2c(=O)c1O [Ie, 2-methyl-3,5,7-trihydroxychromen-4-one]	27.2	138	–	20.6	23.9	–	104	121	–
O=c1ccoc2c(O)c(O)ccc12 [Ig, 7,8-dihydroxychromen-4-one]	–	–	19.9	19.8	–	100	100	–	Melanin ([1]; 0.32 μM): 20.7 µg/mL; activity at 0.32 µM ([1]; Homo sapiens, Melanocyte, 240 h, 0.32 μM, percent of the negative untreated control): 104%
COCc1oc2cc(O)cc(O)c2c(=O)c1OC [Ib, 5,7-dihydroxy-3-methoxy-2-methoxymethylchromen-4-one]	25.2	128	–	20.9	23.7	–	106	120	–
COc1c(C)oc2cc(O)cc(O)c2c1=O [Id, 5,7-dihydroxy-3-methoxy-2-methylchromen-4-one]	–	–	20.8	22.0	27.0	106	112	137	–
O=c1c(O)c(CO)oc2cc(O)cc(O)c12 [Ic]	27.6	139	–	20.8	23.8	–	105	120	–
COCc1cc(=O)c2c(O)cc(O)cc2o1 [Ia, 5,7-dihydroxy-2-methoxymethylchromen-4-one]	–	–	–	–	–	–	–	–	Melanin ([1]; 50 μM): 17.87 µg/mL; Melanin ([1]; 150 μM): 22.14 µg/mL; Melanin ([1]; 450 μM): 19.98 µg/mL; activity at 50 µM ([1]; Homo sapiens, Melanocyte, 240 h, 50 μM, percent of the negative untreated control): 192%; activity at 150 µM ([1]; Homo sapiens, Melanocyte, 240 h, 150 μM, percent of the negative untreated control): 239%; activity at 450 µM ([1]; Homo sapiens, Melanocyte, 240 h, 450 μM, percent of the negative untreated control): 215%
COCC(=O)c1c(COC)oc2cc(O)cc(O)c2c1=O [IIa, 5,7-dihydroxy-3-(2-methoxyacetyl)-2-methoxymethyl-1-benzopyran-4-one]	–	–	–	–	–	–	–	–	Tanning activity (in words) [2]: have a tanning activity
